Experimental data taken from paper PMC8968748 (Journal of medicinal chemistry, 2021).
Values after ≈ are worked out from the molar mass of the structure shown. Each block holds one molecule with its values, some of them ahead of it.

Key:
U87-mIDH1 (R132H) cells = assay: Cellular 2-HG production assay; format: cell-based, human
IDH1(R132H)-86b = assay: SplitLuc CETSA target engagement in HEK293T cells; format: cell-based; settings: relative to 119
[1] = Mouse pharmacokinetic study; format: in vivo
[2] = tested on: U87 mIDH1 (R132H) xenograft; assay: PK/PD in U87 R132H mIDH1 xenograft mouse model; format: in vivo; settings: single 30 mg/kg p.o.
[3] = PK/PD in U87 R132H mIDH1 xenograft mouse model; format: in vivo; settings: female, athymic nude (nu/nu NCr), mouse, in vivo, po, 30 mg/kg
WT IDH1 = WT IDH1 (Homo sapiens, UniProt O75874); assay: IDH1-WT selectivity assay; format: biochemical
WT IDH1, sequence (O75874 whole entry): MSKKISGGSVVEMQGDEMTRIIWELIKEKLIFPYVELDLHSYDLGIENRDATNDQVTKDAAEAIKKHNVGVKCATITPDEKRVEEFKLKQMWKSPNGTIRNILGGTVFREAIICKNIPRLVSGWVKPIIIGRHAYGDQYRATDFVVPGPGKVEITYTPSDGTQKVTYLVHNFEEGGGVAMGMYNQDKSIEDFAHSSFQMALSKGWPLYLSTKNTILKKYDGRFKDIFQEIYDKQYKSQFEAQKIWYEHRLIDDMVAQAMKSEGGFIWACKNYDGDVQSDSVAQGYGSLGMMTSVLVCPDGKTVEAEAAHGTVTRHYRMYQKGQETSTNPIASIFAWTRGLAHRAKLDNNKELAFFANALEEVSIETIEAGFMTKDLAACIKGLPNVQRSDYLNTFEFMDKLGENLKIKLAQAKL

Kinetic solubility assay = format: physicochemical; settings: phosphate buffer, pH 7.4
IDH1 R132H = IDH1 R132H (Homo sapiens, UniProt O75874, R132H); assay: diaphorase/resazurin-coupled mIDH1 R132H enzyme assay; format: biochemical; settings: mIDH1 R132H, relative to 70
IDH1 R132H, sequence (O75874 whole entry R132H): as the sequence (O75874 whole entry) above, with R132H counted along it

[4] = Single time point rat liver microsome stability assay; format: in vitro ADME; settings: rat liver microsomes, pH 7.4
[5] = Parallel artificial membrane permeability assay; format: in vitro ADME; settings: PAMPA, pH 7.4, PAMPA (10^−6 cm/s)

Structure (SMILES): CCc1ccc(Cl)cc1-n1c(C=C(C)C)c(C(=O)N2CCNCC2)cc(-c2nc(-c3ccc(Cl)cc3)cs2)c1=O (single isomer, unassigned) [(+)-119]
2-HG levels lowered by (%) (U87-mIDH1 (R132H) cells; 100 nM, U87-mIDH1 (R132H) cells, 48 h): more than 94% | IC50 (U87-mIDH1 (R132H) cells; Homo sapiens, read-out: potency at reducing 2-HG in the cellular assay): < 0.7 nM | fold more potent than 119 in U87 2-HG assay (U87-mIDH1 (R132H) cells; relative to 119): 30 fold | fold more potent than 119 in HEK293 engagement assay (IDH1(R132H)-86b): 13 fold | brain AUC ([1]; CD1 mice, single 30 mg/kg oral dose): 6996 ng·h/g | Kp ([1]; male, CD1, mouse, brain/plasma, po, 30 mg/kg): 0.28 | Cmax ([1]; male, CD1, mouse, plasma, po, 30 mg/kg): ~3340 nM | average concentration in tumor at 48 h ([2]; 48 h, 30 mg/kg): 7 µM | reduction in tumor 2-HG compared to AG-120 ([2]; from the 16 h time point onwards): greater reduction in tumor 2-HG

Structure (SMILES): COc1ccc(OC)c(-n2c3c(cc(-c4nc(-c5ccc(Cl)cc5)cs4)c2=O)C(=O)CC(C)(C)C3)c1 [Compound 1, 3-(4-(4-Chlorophenyl)thiazol-2-yl)-1-(2,5-dimethoxyphenyl)-7,7-dimethyl-7,8-dihydroquinoline-2,5(1H,6H)-dione]
off-target activity against WT IDH1 (WT IDH1): no readout interference and off-target activity against WT IDH1

Structure (SMILES): CCc1cccc(CC)c1-n1c(C)c(C(=O)NC)cc(-c2nc(-c3ccc(Cl)cc3)cs2)c1=O [Compound 70, 5-(4-(4-Chlorophenyl)thiazol-2-yl)-1-(2,6-diethylphenyl)-N,2-dimethyl-6-oxo-1,6-dihydropyridine-3-carboxamide]
solubility kinetic at 6 h (Kinetic solubility assay): < 1 µM

Structure (SMILES): CCc1cccc(CC)c1-n1c(C)c(C(=O)N2CCNCC2)cc(-c2nc(-c3ccc(Cl)cc3)cs2)c1=O [Compound 87, 3-(4-(4-Chlorophenyl)thiazol-2-yl)-1-(2,6-diethylphenyl)-6-methyl-5-(piperazine-1-carbonyl)pyridin-2(1H)-one]
fold improvement in potency compared to analog 70 (IDH1 R132H): 7 fold | solubility kinetic at 6 h (Kinetic solubility assay): 6.7 µM (≈ 3.67 µg/mL)

Other lines, results leading:

concentration at 24 h [3]: 1600 nM | concentration at 36 h [3]: 1400 nM | concentration at 48 h [3]: 770 nM
Structure (SMILES): N#Cc1ccnc(N2C(=O)CC[C@H]2C(=O)N(c2cncc(F)c2)[C@H](C(=O)NC2CC(F)(F)C2)c2ccccc2Cl)c1 [AG-120]

solubility at 6 h (Kinetic solubility assay): < 1 µg/mL | half-life at 1 μM [4]: 25 min | Papp at 30 min, 0.05 mM [5]: 213 ×10⁻⁶ cm/s
Structure (SMILES): CCc1cccc(CC)c1-n1c(C=C(C)C)c(C(=O)N2CCNC(C)C2)cc(-c2nc(-c3ccc(Cl)cc3)cs2)c1=O (stereo not shown) [Compound 99, 3-(4-(4-Chlorophenyl)thiazol-2-yl)-1-(2,6-diethylphenyl)-5-(3-methylpiperazine-1-carbonyl)-6-(2-methylprop-1-en-1-yl)pyridin-2(1H)-one]
